Assay results taken from patent US20140357512A1, “HISTONE DEACETYLASE (HDAC) BIOMARKERS IN MULTIPLE MYELOMA” (priority 2013, published 2014).

Test system: human myeloma cell line MM.1S
Experiment: SILAC acetylated-lysine peptide profiling, HDAC inhibitor vs DMSO (light/heavy ratio)
Assay type: cell-based
From the text: An embodiment of the invention comprises utilizing the SILAC method in order to quantitate changes in protein expression between two or more populations of cells. The SILAC method is a technique based on mass spectrometry that detects differences in protein abundance among samples using non-radioactive isotopic labeling. The SILAC method is known in the art, and described in detail in Ong et al., “Stable Isotope Labeling by Amino Acids in Cell Culture, SILAC, as a Simple and Accurate Approach to Expression Proteomics”, Molecular & Cellular Proteomics, vol. 1, pp. 376-386 (2002), which is incorporated herein by reference in its entirety.
Briefly, the SILAC method involves growing two populations of cells in cell culture. The first population of cells is grown in growth media containing normal amino acids (“normal media”). The second population of cells is grown in media lacking a standard essential amino acid (such as lysine), but is then supplemented with a non-radioactive, isotopically labeled form of that essential amino acid (such as lysine labeled with ^13C atoms, rather than normal ^12C atoms), which is called “heavy media”. When the two populations of cells are each growing in the medium, they incorporate the amino acids into all of their proteins. The growth of cells maintained in the heavy media is no different from that in normal media. All peptides containing the heavy amino acids are heavier than their normal counterparts. The cells from each of the two populations of cells are lysed. The lysates from each of the two cell populations are then combined. The combined cell lysates are then analyzed by mass spectrometry. Pairs of chemically identical peptides of different stable isotope composition can be differentiated in a mass spectrometer due to their difference in mass. The ratio of peak intensities in the mass spectrum for such peptide pairs reflects the abundance ratio for the two proteins.
This example describes SILAC studies that were performed to compare the effects of three different HDAC inhibitors (Compound A, Compound B, and tubastatin A) to a control on a human multiple myeloma cell line. The HDAC inhibitors were also compared amongst themselves to determine differences in their effects.
A human myeloma cell line MM.1S was grown using either ^12C (light) or ^13C (heavy) lysine containing culture medium. The “heavy” cells were treated with DMSO as the control, and the “light” cells were treated with a single HDAC inhibitor at 37° C. for 6 hours. The heavy and light cells were lysed, and the lysates were mixed in 1:1 ratio and digested with the protease trypsin. The acetylated lysine containing peptides (due to the action of the HDAC inhibitor) in the digested peptide pool were captured by a non-specific anti-acetylated lysine antibody cocktail (the antibodies identify both light and heavy acetylated peptides), and subjected to mass spectrometry analysis in order to identify thousands of individual peptides.
Thousands of peptides were identified in pairs (^12C and ^13C) due to their known mass differences. The amino acid sequence and quantitative ratio (Light/Heavy) of a given peptide in two differentially treated cell lysates were then determined and annotated with their possible protein (gene) sources.
As stated above, three HDAC inhibitors (Compound A, Compound B, and Tubastatin A) were used. Thus, the SILAC method was performed three times, with a different HDAC inhibitor compared to a control each time. Accordingly, there are three pairs of quantitative data in the table below, i.e., Compound A:DMSO, Compound B:DMSO, and Tubastatin A:DMSO. A cut-off of 1.30 fold of change (increase or decrease) was then used to determine “changed” or “+” in the table, and any peptides with a fold of change less than 1.3 fold were determined to be “unchanged” or “0” in the table. Those peptides that were not identified were marked as “NA” in the table. […]

## O=C(NO)c1cnc(NC2(c3cccc(F)c3)CCCCC2)nc1 [Compound B, 2-((1-(3-fluorophenyl)cyclohexyl)amino)-N-hydroxypyrimidine-5-carboxamide]
Putative annexin A2-like protein [302], ANXA2P2, drug:DMSO
  light to heavy ratio (L/H ratio) of acetylated peptide SEVDMLK(ac)IR (SEQ ID NO: 295): 0.00 log 2
Putative annexin A2-like protein [310], ANXA2P2, drug:DMSO
  light to heavy ratio (L/H ratio) of acetylated peptide K(ac)[…] (SEQ ID NO: 358): 0.66 log 2
QLNDVK(ac)[…] (SEQ ID NO: 386), Scavenger mRNA-decapping enzyme DcpS [128], DCPS
  L/H ratio of acetylated peptide: 0.97 log 2
RAC2 [153], log 2 scale, drug vs DMSO
  L/H ratio of acetylated peptide EIDSVK(ac)[…] (SEQ ID NO: 73): 0.00
RPAVK(ac)QFHDSK (SEQ ID NO: 203), 60S ribosomal protein L18a [143], RPL18A
  light to heavy ratio (L/H ratio) of acetylated peptide, log 2 scale: 0.00
RPL3L [373], log 2 scale, drug vs DMSO
  L/H ratio of acetylated peptide FIDTTSK(ac)FGHGR (SEQ ID NO: 83): 0.00
RPL4 [274], log 2 scale, drug vs DMSO
  L/H ratio of acetylated peptide AASLK(ac)SNYNLPMHK (SEQ ID NO: 84): 0.00
RPL9 [121], log 2 scale, drug vs DMSO
  L/H ratio of acetylated peptide NFLGEK(ac)YIR (SEQ ID NO: 86): 0.00
RPL18A [41], log 2 scale, drug vs DMSO
  L/H ratio of acetylated peptide […](ac)SR (SEQ ID NO: 79): 0.00
RPL22 [84], log 2 scale, drug vs DMSO
  L/H ratio of acetylated peptide YLK(ac)YLTK (SEQ ID NO: 81): 0.00
RPL27A [47], log 2 scale, drug vs DMSO
  L/H ratio of acetylated peptide INFDK(ac)YHPGYFGK (SEQ ID NO: 82): 0.00
RPS4X [53], log 2 scale, drug vs DMSO
  L/H ratio of acetylated peptide LK(ac)[…] (SEQ ID NO: 89): 0.00
RPS7 [74], log 2 scale, drug vs DMSO
  L/H ratio of acetylated peptide SFQK(ac)IQVR (SEQ ID NO: 90): 0.00
RPS23 [135], log 2 scale, drug vs DMSO
  L/H ratio of acetylated peptide […](ac)GK (SEQ ID NO: 87): 0.00
RPS27A [104], log 2 scale, drug vs DMSO
  L/H ratio of acetylated peptide LAVLK(ac)YYK (SEQ ID NO: 88): 0.00
Rho GDP-dissociation inhibitor 2 [47], ARHGDIB, drug:DMSO
  light to heavy ratio (L/H ratio) of acetylated peptide […](ac)YK (SEQ ID NO: 360): 0.60 log 2
S1 IF1 type family protein [56], EIF1AXP1, drug:DMSO
  light to heavy ratio (L/H ratio) of acetylated peptide […](ac)R (SEQ ID NO: 334): −0.40 log 2
SARNP 17], log 2 scale, drug vs DMSO
  L/H ratio of acetylated peptide LAELK(ac)QECLAR (SEQ ID NO: 94): 0.00
SARNP [10], log 2 scale, drug vs DMSO
  L/H ratio of acetylated peptide (ac)ATETVELHK(ac)LK (SEQ ID NO: 93): 0.00
SELEFK(ac)FNR (SEQ ID NO: 422), Sialic acid synthase [61], NANS
  L/H ratio of acetylated peptide: 0.53 log 2
SEQ ID NO: 630, 60S ribosomal protein L35a [29], RPL35A
  L/H ratio of acetylated peptide EHTALLK(ac)IEGVYAR: 0.00 log 2
SEQ ID NO: 634, Histone H2A type 1-B/E [96], HIST1H2AE, HIST1H2AB, HIST1H2AD, HIST1H2AG, HIST1H2AK, HIST1H2AL, HIST1H2AM, HIST1H2AJ, HIST1H2AI
  L/H ratio of acetylated peptide NDEELNK(ac)LLGR: 0.00 log 2
SEQ ID NO: 636, 60S ribosomal protein L3 [103], SNORD43, RPL3
  L/H ratio of acetylated peptide TFK(ac)[…]: 0.00 log 2
SEQ ID NO: 637, Protein disulfide-isomerase [328], P4HB
  L/H ratio of acetylated peptide YK(ac)[…]: 0.00 log 2
SEQ ID NO: 638, Stress-70 protein mitochondrial [567], HSPA9
  L/H ratio of acetylated peptide NAEK(ac)YAEEDRR: 0.00 log 2
SEQ ID NO: 639, pyruvate dehydrogenase E1 component subunit alpha somatic form mitochondrial isoform 2 precursor [359], PDHA1
  L/H ratio of acetylated peptide […](ac)DR: 0.00 log 2
SEQ ID NO: 645, Chromobox protein homolog 3 [50], CBX3
  L/H ratio of acetylated peptide VEYFLK(ac)WK: 0.00 log 2
SEQ ID NO: 646, Isocitrate dehydrogenase [NADP] mitochondrial [275], IDH2
  L/H ratio of acetylated peptide HYK(ac)TDFDK: 0.00 log 2
SEQ ID NO: 647, tRNA-splicing ligase RtcB homolog [190], C22orf28
  L/H ratio of acetylated peptide EGYAWAEDK(ac)EHCEEYGR: 0.00 log 2
SEQ ID NO: 650, Dihydrolipoyl dehydrogenase mitochondrial [143], DLD
  L/H ratio of acetylated peptide […](ac)QNK: 0.00 log 2
SEQ ID NO: 651, CDGSH iron-sulfur domain-containing protein 1 [37], CISD1
  L/H ratio of acetylated peptide FYVK(ac)DHR: 0.00 log 2
SEQ ID NO: 653, Stress-70 protein mitochondrial [288], HSPA9
  L/H ratio of acetylated peptide HIVK(ac)EFK: 0.00 log 2
SEQ ID NO: 654, Isoform A of Phosphate carrier protein mitochondrial [214], SLC25A3
  L/H ratio of acetylated peptide MYKEEGLK(ac)AFYK: 0.00 log 2
SEQ ID NO: 657, Isoform 1 of Clathrin heavy chain 1 [1264], CLTC
  L/H ratio of acetylated peptide […](ac)EFR: 0.00 log 2
SEQ ID NO: 659, Annexin A6 [81], ANXA6
  L/H ratio of acetylated peptide YELTGK(ac)FER: 0.00 log 2
SEQ ID NO: 661, NADH dehydrogenase [ubiquinone] 1 alpha subcomplex subunit 5 [60], NDUFA5
  L/H ratio of acetylated peptide LAMVK(ac)AEPDVK: 0.00 log 2
SEQ ID NO: 662, NADP-dependent malic enzyme mitochondrial [119], ME3
  L/H ratio of acetylated peptide NEK(ac)LFYR: 0.00 log 2
SEQ ID NO: 664, Thioredoxin-dependent peroxide reductase mitochondrial [91], PRDX3
  L/H ratio of acetylated peptide DLSLDDFK(ac)GK: 0.00 log 2
SEQ ID NO: 669, 40S ribosomal protein S13 [34], RPS13
  L/H ratio of acetylated peptide LTSDDVK(ac)EQIYK: 0.00 log 2
SEQ ID NO: 670, Isoform alpha-enolase of Alpha-enolase [343], ENO1
  L/H ratio of acetylated peptide SCNCLLLK(ac)[…]: 0.00 log 2
SEQ ID NO: 671, Methyltransferase-like protein 7A [105], METTL7A
  L/H ratio of acetylated peptide […](ac)FLIK: 0.00 log 2
SEQ ID NO: 672, Annexin A6 [442], ANXA6
  L/H ratio of acetylated peptide […](ac)QLK: 0.00 log 2
SEQ ID NO: 678, Isoform 1 of Enoyl-CoA delta isomerase 1 mitochondrial [89], ECI1
  L/H ratio of acetylated peptide LENDK(ac)SFR: 0.00 log 2
SEQ ID NO: 679, Isoform 1 of Nucleoside diphosphate kinase B [39], NME1, NME2, NME1-NME2
  L/H ratio of acetylated peptide LVAMK(ac)FLR: 0.00 log 2
SEQ ID NO: 688, Isoform alpha-enolase of Alpha-enolase [256], ENO1
  L/H ratio of acetylated peptide SGK(ac)YDLDFK: 0.00 log 2
SEQ ID NO: 689, cDNA FLJ61478 highly similar to Succinate dehydrogenase (ubiquinone) flavoprotein subunit mitochondrial [547], SDHA
  L/H ratio of acetylated peptide LYGDLK(ac)HLK: 0.00 log 2
SEQ ID NO: 692, Isoform 1 of Myosin-9 [1459], MYH9
  L/H ratio of acetylated peptide TISAK(ac)YAEER: 0.00 log 2
SEQ ID NO: 693, Chromobox protein homolog 3 [5], CBX3
  L/H ratio of acetylated peptide (ac)ASNK(ac)TTLQK: 0.00 log 2
SEQ ID NO: 699, Histone H2B type 2-F [21], HIST2H2BF
  L/H ratio of acetylated peptide KAVTK(ac)VQK: 0.00 log 2
SEQ ID NO: 700, Dihydrolipoyl dehydrogenase mitochondrial [267], DLD
  L/H ratio of acetylated peptide ILQK(ac)QGFK: 0.00 log 2
SEQ ID NO: 701, Trifunctional enzyme subunit alpha mitochondrial [353], HADHA
  L/H ratio of acetylated peptide NK(ac)FGAPQK: 0.00 log 2
SEQ ID NO: 702, Isocitrate dehydrogenase [NAD] subunit gamma mitochondrial [221], IDH3G
  L/H ratio of acetylated peptide VTAVHK(ac)ANIMK: 0.00 log 2
SEQ ID NO: 703, Protein FAM3C [67], FAM3C
  L/H ratio of acetylated peptide ACPEK(ac)HFAFK: 0.00 log 2
SEQ ID NO: 705, Ubiquitin-60S ribosomal protein L40 [88], UBA52
  L/H ratio of acetylated peptide QLAQK(ac)YNCDK: 0.00 log 2
SEQ ID NO: 706, Isoform 1 of ATP synthase subunit d mitochondrial [95], ATP5H
  L/H ratio of acetylated peptide […](ac)EDVK: 0.00 log 2
SEQ ID NO: 708, ATP synthase subunit beta mitochondrial [522], ATP5B
  L/H ratio of acetylated peptide ADK(ac)LAEEHSS: 0.00 log 2
SEQ ID NO: 709, Superoxide dismutase [Mn] mitochondrial [130], SOD2
  L/H ratio of acetylated peptide DFGSFDK(ac)FK: 0.00 log 2
SEQ ID NO: 711, cDNA FLJ75110 highly similar to Homo sapiens PHD finger protein 15 (PHF15) mRNA 3[2:38], PHF15
  L/H ratio of acetylated peptide CSK(ac)LPSSTK(ac)SGWPR: 0.00 log 2
SEQ ID NO: 712, Histone H2B type 1-M [21], HIST1H2BM
  L/H ratio of acetylated peptide KAINK(ac)AQK: 0.00 log 2
SEQ ID NO: 714, Putative annexin A2-like protein [157], ANXA2P2
  L/H ratio of acetylated peptide TDLEK(ac)[…]: 0.00 log 2
SEQ ID NO: 718, Malate dehydrogenase mitochondrial [301], MDH2
  L/H ratio of acetylated peptide KGIEK(ac)NLGIGK: 0.00 log 2
SEQ ID NO: 720, Putative ATP-dependent Clp protease proteolytic subunit mitochondrial [211], CLPP
  L/H ratio of acetylated peptide QLYNIYAK(ac)HTK: 0.00 log 2
SEQ ID NO: 721, 60 kDa heat shock protein mitochondrial [364], HSPD1
  L/H ratio of acetylated peptide GKGDK(ac)AQIEK: 0.00 log 2
SEQ ID NO: 722, 60S ribosomal protein L32 [76], RPL32
  L/H ratio of acetylated peptide K(ac)FLVHNVK: 0.00 log 2
